Publication PMC8286840, “Identifying SARS-CoV-2 antiviral compounds by screening for small molecule inhibitors of Nsp3 papain-like protease” (Biochemical Journal, 2021)
Counter-ions that a name gives are not always drawn. Like-named read-outs stand apart in the source and are kept apart here.

Assays:
[1] = target: T1, SARS-CoV-2 PLpro (nsp3 1564–1878) (Severe acute respiratory syndrome coronavirus 2, UniProt P0DTD1); assay: biochemical; set-up: FRET-quenched peptide (Pro3) cleavage by PLpro, 10 min pre-incubation, slope over 20 min, normalised to no-compound control; conditions: high concentration screen, read-out: % of control remaining
[2] = target: T1, SARS-CoV-2 PLpro (nsp3 1564–1878); assay: biochemical; set-up: FRET-quenched peptide (Pro3) cleavage by PLpro, 10 min pre-incubation, slope over 20 min, normalised to no-compound control; conditions: low concentration screen, read-out: % of control remaining

## C=C[C@@]1(C)CC(=O)[C@]2(O)[C@@]3(C)[C@@H](O)CCC(C)(C)[C@@H]3[C@H](O)[C@H](OC(C)=O)[C@@]2(C)O1 [Forskolin]
[1]; Well no.=423
  remaining activity at 3.75 µM: 98.9%
[1]; Well no.=3281
  remaining activity at 3.75 µM: 99.2%
[1]; Well no.=8331
  remaining activity at 3.75 µM: 95.4%
[2]; Well no.=423
  remaining activity at 1.25 µM: 99.9%
[2]; Well no.=3281
  remaining activity at 1.25 µM: 99.5%
[2]; Well no.=8331
  remaining activity at 1.25 µM: 98.2%

## CC(C)CN(C[C@@H](OP(=O)(O)O)[C@H](Cc1ccccc1)NC(=O)O[C@H]1CCOC1)S(=O)(=O)c1ccc(N)cc1 [Fosamprenavir]
[1]; Well no.=7846
  remaining activity at 3.75 µM: 102%
[2]; Well no.=7846
  remaining activity at 1.25 µM: 104%

## C[C@@H](O[C@H]1OCCN(Cc2nn(P(=O)(O)O)c(=O)[nH]2)[C@H]1c1ccc(F)cc1)c1cc(C(F)(F)F)cc(C(F)(F)F)c1 [Fosaprepitant (dimeglumine)]
[1]; Well no.=7483
  remaining activity at 3.75 µM: 97.1%
[2]; Well no.=7483
  remaining activity at 1.25 µM: 104%

## C[C@@H](O[C@H]1OCCN(Cc2nn(P(=O)(O)O)c(=O)[nH]2)[C@H]1c1ccc(F)cc1)c1cc(C(F)(F)F)cc(C(F)(F)F)c1 [Fosaprepitant dimeglumine]
[1]; Well no.=5269
  remaining activity at 3.75 µM: 95.4%
[2]; Well no.=5269
  remaining activity at 1.25 µM: 97.5%

## COc1ccc(/C=C\c2cc(OC)c(OC)c(OC)c2)cc1OP(=O)(O)O [Fosbretabulin disodium]
[1]; Well no.=5660
  remaining activity at 3.75 µM: 90.4%
[2]; Well no.=5660
  remaining activity at 1.25 µM: 95.9%

## O=C(O)P(=O)(O)O [Foscarnet Sodium]
[1]; Well no.=5321
  remaining activity at 3.75 µM: 95.6%
[2]; Well no.=5321
  remaining activity at 1.25 µM: 101%

## CCC(=O)O[C@@H](O[P@](=O)(CCCCc1ccccc1)CC(=O)N1C[C@H](C2CCCCC2)C[C@H]1C(=O)O)C(C)C [Fosinopril (sodium)]
[1]; Well no.=8750
  remaining activity at 3.75 µM: 94.7%
[2]; Well no.=8750
  remaining activity at 1.25 µM: 93.5%

## CCC(=O)O[C@@H](O[P@](=O)(CCCCc1ccccc1)CC(=O)N1C[C@H](C2CCCCC2)C[C@H]1C(=O)O)C(C)C [Fosinopril Sodium]
[1]; Well no.=8492
  remaining activity at 3.75 µM: 102%
[2]; Well no.=8492
  remaining activity at 1.25 µM: 101%

## CCC(=O)O[C@@H](O[P@](=O)(CCCCc1ccccc1)CC(=O)N1C[C@H](C2CCCCC2)C[C@H]1C(=O)O)C(C)C [Fosinopril]
[1]; Well no.=1904
  remaining activity at 3.75 µM: 89.1%
[2]; Well no.=1904
  remaining activity at 1.25 µM: 89.9%

## COc1cnc(-n2cnc(C)n2)c2c1c(C(=O)C(=O)N1CCN(C(=O)c3ccccc3)CC1)cn2COP(=O)(O)O [Fostemsavir]
[1]; Well no.=7748
  remaining activity at 3.75 µM: 102%
[2]; Well no.=7748
  remaining activity at 1.25 µM: 101%

## C[C@H]1C(=O)CC[C@@H]2[C@]1(C)CC[C@H]1[C@@]2(C)CC[C@@]2(C)[C@@H]3CC(C)(C)CC[C@]3(C)CC[C@]12C [Friedelin]
[1]; Well no.=3208
  remaining activity at 3.75 µM: 110%
[2]; Well no.=3208
  remaining activity at 1.25 µM: 109%

## O=c1[nH]c(=O)n(C2CCCO2)cc1F (stereo not drawn) [Ftorafur]
[1]; Well no.=2164
  remaining activity at 3.75 µM: 99.1%
[2]; Well no.=2164
  remaining activity at 1.25 µM: 97.3%

## N[C@@H](CSCCCO)C(=O)O [Fudosteine]
[1]; Well no.=5102
  remaining activity at 3.75 µM: 102%
[2]; Well no.=5102
  remaining activity at 1.25 µM: 100%

## C[C@]12CC[C@@H]3c4ccc(O)cc4C[C@@H](CCCCCCCCC[S+]([O-])CCCC(F)(F)C(F)(F)F)[C@H]3[C@@H]1CC[C@@H]2O (stereo partly drawn) [Fulvestrant]
[1]; Well no.=2254
  remaining activity at 3.75 µM: 96.8%
[2]; Well no.=2254
  remaining activity at 1.25 µM: 97.2%

## CO[C@@H]1[C@H](OC(=O)/C=C/C=C/C=C/C=C/C(=O)O)CC[C@]2(CO2)[C@H]1[C@@]1(C)O[C@@H]1CC=C(C)C [Fumagillin]
[1]; Well no.=1621
  remaining activity at 3.75 µM: 100%
[1]; Well no.=3283
  remaining activity at 3.75 µM: 101%
[2]; Well no.=1621
  remaining activity at 1.25 µM: 103%
[2]; Well no.=3283
  remaining activity at 1.25 µM: 102%

## O=C(O)/C=C/C(=O)O [Fumaric acid]
[1]; Well no.=6539
  remaining activity at 3.75 µM: 82.4%
[2]; Well no.=6539
  remaining activity at 1.25 µM: 101%

## CCCC[C@@H](C)[C@@H](OC(=O)C[C@@H](CC(=O)O)C(=O)O)[C@H](C[C@@H](C)CCCCCC[C@@H](O)C[C@H](O)[C@H](C)N)OC(=O)C[C@@H](CC(=O)O)C(=O)O [Fumonisin B2]
[1]; Well no.=3285
  remaining activity at 3.75 µM: 95.7%
[2]; Well no.=3285
  remaining activity at 1.25 µM: 95.4%

## Cc1nc2c([nH]1)c(=O)n(C)c(=O)n2Cc1ccco1 [Furafylline]
[1]; Well no.=665
  remaining activity at 3.75 µM: 92.2%
[1]; Well no.=1544
  remaining activity at 3.75 µM: 100%
[2]; Well no.=665
  remaining activity at 1.25 µM: 95.4%
[2]; Well no.=1544
  remaining activity at 1.25 µM: 97.6%

## O=C(O)c1cc2cc(Cc3cccnc3)ccc2o1 [Furegrelate sodium]
[1]; Well no.=563
  remaining activity at 3.75 µM: 97.3%
[2]; Well no.=563
  remaining activity at 1.25 µM: 97.2%

## NS(=O)(=O)c1cc(C(=O)O)c(NCc2ccco2)cc1Cl [Furosemide]
[1]; Well no.=659
  remaining activity at 3.75 µM: 94.4%
[1]; Well no.=2166
  remaining activity at 3.75 µM: 99.5%
[1]; Well no.=7462
  remaining activity at 3.75 µM: 102%
[2]; Well no.=659
  remaining activity at 1.25 µM: 92.2%
[2]; Well no.=2166
  remaining activity at 1.25 µM: 101%
[2]; Well no.=7462
  remaining activity at 1.25 µM: 102%

## CCCCc1ccc(C(=O)O)nc1 [Fusaric acid]
[1]; Well no.=613
  remaining activity at 3.75 µM: 99.1%
[2]; Well no.=613
  remaining activity at 1.25 µM: 98.5%

## CC(=O)O[C@H]1C[C@@]2(C)[C@@H](C[C@@H](O)[C@H]3[C@@]4(C)CC[C@@H](O)[C@@H](C)[C@@H]4CC[C@@]32C)/C1=C(\CCC=C(C)C)C(=O)O [Fusidic acid sodium]
[1]; Well no.=657
  remaining activity at 3.75 µM: 101%
[2]; Well no.=657
  remaining activity at 1.25 µM: 104%

## c1cc(-c2sc(-c3ccncc3)c(-c3ccncc3)c2-c2ccncc2)ccn1 [GANT58]
[1]; Well no.=5874
  remaining activity at 3.75 µM: 86.5%
[2]; Well no.=5874
  remaining activity at 1.25 µM: 94.6%

## Fc1ccc(C(OCCN2CCN(CCCc3ccccc3)CC2)c2ccc(F)cc2)cc1 [GBR-12909 dihydrochloride]
[1]; Well no.=590
  remaining activity at 3.75 µM: 98.5%
[2]; Well no.=590
  remaining activity at 1.25 µM: 98.5%

## c1ccc(CCCN2CCN(CCOC(c3ccccc3)c3ccccc3)CC2)cc1 [GBR-12935 dihydrochloride]
[1]; Well no.=765
  remaining activity at 3.75 µM: 87.4%
[2]; Well no.=765
  remaining activity at 1.25 µM: 91%

## CC(C)NC[C@@H](C(=O)N1CCN(c2ncnc3c2[C@H](C)C[C@H]3O)CC1)c1ccc(Cl)cc1 [GDC-0068]
[1]; Well no.=5131
  remaining activity at 3.75 µM: 106%
[2]; Well no.=5131
  remaining activity at 1.25 µM: 104%

## CN[C@@H](C)C(=O)N[C@H](C(=O)N1CCC[C@H]1C(=O)Nc1snnc1-c1ccccc1)C1CCCCC1 [GDC-0152]
[1]; Well no.=6692
  remaining activity at 3.75 µM: 95.6%
[2]; Well no.=6692
  remaining activity at 1.25 µM: 103%

## CCNC(=O)Nc1ccc(-c2nc3c(c(N4CCOC[C@@H]4C)n2)CCN(C2COC2)C3)cc1 [GDC-0349]
[1]; Well no.=5220
  remaining activity at 3.75 µM: 95.1%
[2]; Well no.=5220
  remaining activity at 1.25 µM: 97.8%

## OCCn1cc(-c2ccc3c(c2)CC/C3=N\O)c(-c2ccncc2)n1 [GDC-0879]
[1]; Well no.=5043
  remaining activity at 3.75 µM: 104%
[2]; Well no.=5043
  remaining activity at 1.25 µM: 104%

## CS(=O)(=O)N1CCN(Cc2cc3nc(-c4cccc5[nH]ncc45)nc(N4CCOCC4)c3s2)CC1 [GDC-0941]
[1]; Well no.=2801
  remaining activity at 3.75 µM: 101%
[2]; Well no.=2801
  remaining activity at 1.25 µM: 103%
